From US6432671B1 (priority 1996, dated 2002)

Tested on: tryparedoxin I
Type: biochemical, Crithidia fasciculata

For `CCN1C(=O)C=CC1=O` [NEM, N-ethylmaleimide], the “residual activity [%]” value was 24 ± 5%.
